Here are results for 12 compounds from ChEMBL document CHEMBL1201862, “PubChem BioAssay data set” (2004).

The source made the active and inactive calls.

Experiment [1] concerns the target DNA dC->dU-editing enzyme APOBEC-3G (Homo sapiens, UniProt Q9HC16). It counts as functional.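 Also: Dose-response counterscreen measuring inhibition of APOBEC3G DNA deaminase activity, run while confirming APOBEC3A inhibitors.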
The target of experiment [2] is DNA dC->dU-editing enzyme APOBEC-3A (Homo sapiens, UniProt P31941). The experiment is described as follows: Dose Response confirmation of small molecule APOBEC3A DNA Deaminase Inhibitors via a fluorescence-based single-stranded DNA deaminase assay. [Related pubchem assays (depositor defined):AID493011, AID493024]. It counts as functional.
Sequence of DNA dC->dU-editing enzyme APOBEC-3A (P31941 whole entry): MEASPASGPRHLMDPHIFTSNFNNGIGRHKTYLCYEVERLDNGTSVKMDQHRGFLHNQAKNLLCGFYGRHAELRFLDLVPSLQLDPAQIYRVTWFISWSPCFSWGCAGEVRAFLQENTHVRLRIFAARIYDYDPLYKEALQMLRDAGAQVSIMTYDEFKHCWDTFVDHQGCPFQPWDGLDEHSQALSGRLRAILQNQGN
For a further experiment, the target named is Large T antigen (Simian virus 40, UniProt P03070). It counts as functional, Betapolyomavirus macacae.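 Also: Confirmatory-stage PubChem screen for compounds that inhibit SV40 T antigen.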
For experiment [3], the target named is T1, Voltage-gated N-type calcium channel alpha-1B subunit/Amyloid beta A4 precursor protein-binding family A member 1 (Homo sapiens, UniProt Q00975+Q02410). It counts as protein assay.
T1 sequence (Q00975 whole entry): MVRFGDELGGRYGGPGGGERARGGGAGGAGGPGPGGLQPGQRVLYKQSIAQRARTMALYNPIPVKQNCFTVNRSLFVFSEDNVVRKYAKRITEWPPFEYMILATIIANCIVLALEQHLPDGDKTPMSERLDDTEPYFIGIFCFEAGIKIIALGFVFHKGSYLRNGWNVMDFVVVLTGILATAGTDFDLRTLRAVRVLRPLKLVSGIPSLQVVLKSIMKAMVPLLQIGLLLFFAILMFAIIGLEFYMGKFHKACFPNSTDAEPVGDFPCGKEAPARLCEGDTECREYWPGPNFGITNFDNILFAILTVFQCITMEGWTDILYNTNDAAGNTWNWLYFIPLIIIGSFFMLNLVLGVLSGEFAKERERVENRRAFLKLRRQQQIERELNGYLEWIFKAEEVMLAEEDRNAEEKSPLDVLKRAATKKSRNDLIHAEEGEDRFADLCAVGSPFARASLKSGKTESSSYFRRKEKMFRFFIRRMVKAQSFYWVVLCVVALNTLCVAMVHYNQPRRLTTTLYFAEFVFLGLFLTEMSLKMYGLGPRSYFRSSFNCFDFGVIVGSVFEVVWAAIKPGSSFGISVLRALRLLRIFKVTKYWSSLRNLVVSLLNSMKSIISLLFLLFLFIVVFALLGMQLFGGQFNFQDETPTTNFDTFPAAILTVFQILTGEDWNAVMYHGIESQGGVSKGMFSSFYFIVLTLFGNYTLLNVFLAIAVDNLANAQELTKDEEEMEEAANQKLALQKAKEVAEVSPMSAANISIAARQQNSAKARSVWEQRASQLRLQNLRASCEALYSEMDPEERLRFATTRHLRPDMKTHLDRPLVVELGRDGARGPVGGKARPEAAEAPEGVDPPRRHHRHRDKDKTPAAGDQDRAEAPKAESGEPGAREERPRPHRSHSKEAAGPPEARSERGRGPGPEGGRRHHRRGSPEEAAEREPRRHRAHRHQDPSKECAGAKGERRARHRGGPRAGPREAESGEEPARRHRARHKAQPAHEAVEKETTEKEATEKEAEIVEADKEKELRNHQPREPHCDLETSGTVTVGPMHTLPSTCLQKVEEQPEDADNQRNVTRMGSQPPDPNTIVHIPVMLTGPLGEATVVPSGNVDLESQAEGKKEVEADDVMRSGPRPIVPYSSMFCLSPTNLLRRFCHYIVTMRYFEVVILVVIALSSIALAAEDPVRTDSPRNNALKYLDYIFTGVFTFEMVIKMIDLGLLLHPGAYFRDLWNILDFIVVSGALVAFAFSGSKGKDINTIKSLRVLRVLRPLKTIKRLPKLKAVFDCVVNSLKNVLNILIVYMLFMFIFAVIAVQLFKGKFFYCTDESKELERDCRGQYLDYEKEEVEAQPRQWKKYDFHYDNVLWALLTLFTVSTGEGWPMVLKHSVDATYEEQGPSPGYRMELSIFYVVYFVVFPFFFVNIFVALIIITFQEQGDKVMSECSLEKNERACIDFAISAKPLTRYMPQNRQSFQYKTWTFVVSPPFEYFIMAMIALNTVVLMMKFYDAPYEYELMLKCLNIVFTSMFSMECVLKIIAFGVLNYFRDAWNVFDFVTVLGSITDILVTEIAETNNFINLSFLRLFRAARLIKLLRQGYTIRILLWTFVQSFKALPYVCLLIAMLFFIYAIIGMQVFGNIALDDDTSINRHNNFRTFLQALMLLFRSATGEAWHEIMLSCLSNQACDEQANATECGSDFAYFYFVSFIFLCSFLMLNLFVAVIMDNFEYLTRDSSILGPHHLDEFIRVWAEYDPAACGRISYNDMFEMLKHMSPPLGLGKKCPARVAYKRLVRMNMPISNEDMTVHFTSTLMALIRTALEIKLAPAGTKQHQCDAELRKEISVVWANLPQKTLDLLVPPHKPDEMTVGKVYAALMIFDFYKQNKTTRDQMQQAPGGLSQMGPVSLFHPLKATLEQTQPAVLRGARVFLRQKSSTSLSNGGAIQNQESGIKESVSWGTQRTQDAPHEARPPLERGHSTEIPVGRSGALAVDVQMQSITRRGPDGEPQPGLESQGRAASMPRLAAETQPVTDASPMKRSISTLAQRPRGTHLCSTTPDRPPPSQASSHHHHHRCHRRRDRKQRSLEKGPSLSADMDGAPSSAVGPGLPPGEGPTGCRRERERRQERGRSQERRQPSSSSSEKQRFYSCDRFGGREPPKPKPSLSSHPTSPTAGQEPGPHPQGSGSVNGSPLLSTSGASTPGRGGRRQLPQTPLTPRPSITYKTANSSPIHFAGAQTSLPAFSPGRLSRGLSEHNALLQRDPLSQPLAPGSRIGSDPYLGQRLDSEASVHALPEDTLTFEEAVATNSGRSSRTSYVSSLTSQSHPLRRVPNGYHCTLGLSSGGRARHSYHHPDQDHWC
T1 sequence (Q02410 whole entry): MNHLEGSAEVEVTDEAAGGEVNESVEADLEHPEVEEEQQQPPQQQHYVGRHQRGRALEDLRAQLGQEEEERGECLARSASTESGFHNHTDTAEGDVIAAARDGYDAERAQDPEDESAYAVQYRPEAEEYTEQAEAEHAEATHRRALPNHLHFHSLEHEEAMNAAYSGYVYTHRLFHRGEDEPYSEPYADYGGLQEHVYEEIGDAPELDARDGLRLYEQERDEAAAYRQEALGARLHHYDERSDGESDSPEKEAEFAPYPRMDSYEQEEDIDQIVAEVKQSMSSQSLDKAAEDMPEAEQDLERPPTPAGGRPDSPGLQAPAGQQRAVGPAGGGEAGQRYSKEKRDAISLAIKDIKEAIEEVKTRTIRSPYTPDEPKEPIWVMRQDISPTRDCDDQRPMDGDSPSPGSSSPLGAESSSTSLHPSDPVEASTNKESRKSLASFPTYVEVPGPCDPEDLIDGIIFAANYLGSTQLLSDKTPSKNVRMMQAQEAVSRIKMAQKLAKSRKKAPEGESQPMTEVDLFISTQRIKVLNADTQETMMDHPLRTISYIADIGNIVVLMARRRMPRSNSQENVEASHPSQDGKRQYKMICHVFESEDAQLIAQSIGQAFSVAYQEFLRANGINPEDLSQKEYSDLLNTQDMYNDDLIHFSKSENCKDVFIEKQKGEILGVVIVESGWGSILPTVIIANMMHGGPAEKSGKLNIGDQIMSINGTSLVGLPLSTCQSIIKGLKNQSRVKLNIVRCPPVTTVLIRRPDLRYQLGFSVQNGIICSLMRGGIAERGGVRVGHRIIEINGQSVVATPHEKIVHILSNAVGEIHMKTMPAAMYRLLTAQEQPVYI
The target of experiment [4] is T1, Voltage-gated N-type calcium channel alpha-1B subunit/Amyloid beta A4 precursor protein-binding family A member 1. It counts as protein assay. This is another data set of the same source.
A further experiment has as its target T2, Estrogen receptor (Homo sapiens, UniProt P03372).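 Also: potency for inhibiting coactivator peptide recruitment to the receptor.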
T2 sequence (P03372 whole entry): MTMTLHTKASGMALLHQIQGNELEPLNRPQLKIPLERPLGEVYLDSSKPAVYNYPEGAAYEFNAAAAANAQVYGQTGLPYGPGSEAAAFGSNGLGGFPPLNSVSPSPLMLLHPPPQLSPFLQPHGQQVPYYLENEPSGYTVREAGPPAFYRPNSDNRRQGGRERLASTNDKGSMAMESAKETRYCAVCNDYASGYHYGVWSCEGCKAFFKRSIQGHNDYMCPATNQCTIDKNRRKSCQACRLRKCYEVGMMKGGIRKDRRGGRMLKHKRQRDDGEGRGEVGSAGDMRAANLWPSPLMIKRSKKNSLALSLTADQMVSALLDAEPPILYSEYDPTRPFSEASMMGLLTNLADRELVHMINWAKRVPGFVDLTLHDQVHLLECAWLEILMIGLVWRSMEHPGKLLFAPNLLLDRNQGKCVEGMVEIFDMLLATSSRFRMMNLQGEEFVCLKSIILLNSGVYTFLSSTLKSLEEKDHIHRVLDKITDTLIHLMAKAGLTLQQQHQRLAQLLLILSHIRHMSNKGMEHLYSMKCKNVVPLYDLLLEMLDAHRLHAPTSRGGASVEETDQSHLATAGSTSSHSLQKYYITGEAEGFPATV

For experiment [5], the target named is T3, Genome polyprotein (Hepatitis C virus, UniProt Q2Q167).
T3 sequence (Q2Q167 whole entry): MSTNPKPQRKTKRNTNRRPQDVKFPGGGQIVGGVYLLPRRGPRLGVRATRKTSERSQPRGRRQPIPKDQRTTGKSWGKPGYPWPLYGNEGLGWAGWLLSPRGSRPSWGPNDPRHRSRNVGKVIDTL
The experiment is described as follows: disruption of hepatitis C core self-association – biochemical, TR-FRET, dose response (AID 2159).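 Also: blocks dimerization of HCV core protein measured by TR-FRET between tagged core106 pairs.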 Details: species or system Hepacivirus hominis.

The target in experiment [6] is Glucose-6-phosphate 1-dehydrogenase (Homo sapiens, UniProt P11413). The experiment is described as follows: inhibition of Homo sapiens G6PD, dose series – biochemical, fluorescence, selectivity assay for P. falciparum G6PD inhibitor project, dose response (AID 504792). It counts as functional.
Experiment [7] has as its target Genome polyprotein (dengue virus type 2, UniProt P29990). Description: flavivirus cap methylation enzyme inhibition – biochemical, confirmation dose response, primary screen (AID 588689). It counts as functional.
Another experiment relates to Vero. Description: viability of Vero cells under compound – cytotoxicity control for flavivirus capping enzyme inhibitors (AID 588742). It counts as functional. The note with it: Chlorocebus sabaeus.
Experiment [8] addresses Induced myeloid leukemia cell differentiation protein Mcl-1 (Homo sapiens, UniProt Q07820). It counts as functional.
Experiment [9] concerns the target T4, Apoptotic protease-activating factor 1 (Homo sapiens, UniProt O14727).
T4 sequence (O14727 whole entry): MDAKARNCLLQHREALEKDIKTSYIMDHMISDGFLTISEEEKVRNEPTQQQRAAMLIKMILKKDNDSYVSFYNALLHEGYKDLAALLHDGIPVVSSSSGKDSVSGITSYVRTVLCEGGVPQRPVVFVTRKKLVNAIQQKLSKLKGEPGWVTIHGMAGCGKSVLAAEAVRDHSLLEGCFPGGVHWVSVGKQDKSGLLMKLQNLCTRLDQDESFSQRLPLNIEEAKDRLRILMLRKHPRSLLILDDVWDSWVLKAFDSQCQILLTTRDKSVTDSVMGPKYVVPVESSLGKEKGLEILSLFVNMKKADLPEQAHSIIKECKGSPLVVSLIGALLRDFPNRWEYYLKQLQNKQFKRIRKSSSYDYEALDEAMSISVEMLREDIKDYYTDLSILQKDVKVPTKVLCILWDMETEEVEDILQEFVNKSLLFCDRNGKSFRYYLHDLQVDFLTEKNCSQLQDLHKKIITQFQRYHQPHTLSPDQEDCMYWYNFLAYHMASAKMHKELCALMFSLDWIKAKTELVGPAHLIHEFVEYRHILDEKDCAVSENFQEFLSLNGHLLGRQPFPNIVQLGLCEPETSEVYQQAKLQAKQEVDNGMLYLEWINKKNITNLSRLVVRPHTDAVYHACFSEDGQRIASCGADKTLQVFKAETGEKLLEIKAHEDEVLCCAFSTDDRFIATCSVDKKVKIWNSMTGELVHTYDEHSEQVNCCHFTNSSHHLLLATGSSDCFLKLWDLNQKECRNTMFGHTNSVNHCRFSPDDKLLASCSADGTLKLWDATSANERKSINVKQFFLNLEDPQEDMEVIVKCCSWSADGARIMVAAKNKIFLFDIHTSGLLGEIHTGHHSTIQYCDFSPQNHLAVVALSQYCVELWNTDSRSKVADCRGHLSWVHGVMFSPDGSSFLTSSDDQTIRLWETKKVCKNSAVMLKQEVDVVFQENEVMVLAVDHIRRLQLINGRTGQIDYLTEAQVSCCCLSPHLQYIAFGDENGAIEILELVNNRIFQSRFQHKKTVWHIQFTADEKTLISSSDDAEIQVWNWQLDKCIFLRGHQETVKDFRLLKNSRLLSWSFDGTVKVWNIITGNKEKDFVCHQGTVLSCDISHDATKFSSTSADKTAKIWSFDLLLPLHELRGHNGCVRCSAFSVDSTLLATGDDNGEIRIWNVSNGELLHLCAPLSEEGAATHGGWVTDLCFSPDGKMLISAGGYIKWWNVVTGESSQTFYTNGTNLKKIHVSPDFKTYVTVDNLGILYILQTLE
It counts as functional.

The next experiment concerns the target T5, CAAX prenyl protease 2 (Saccharomyces cerevisiae S288c, UniProt Q03530).
T5 sequence (Q03530 whole entry): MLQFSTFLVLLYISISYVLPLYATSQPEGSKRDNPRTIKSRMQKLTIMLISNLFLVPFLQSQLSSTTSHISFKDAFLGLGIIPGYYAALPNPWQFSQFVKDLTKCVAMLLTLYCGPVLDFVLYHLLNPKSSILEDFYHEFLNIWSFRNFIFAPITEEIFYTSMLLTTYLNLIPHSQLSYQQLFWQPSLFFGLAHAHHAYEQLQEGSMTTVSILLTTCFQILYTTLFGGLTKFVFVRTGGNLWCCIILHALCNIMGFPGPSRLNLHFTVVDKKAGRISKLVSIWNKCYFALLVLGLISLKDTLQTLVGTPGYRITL
It counts as biochemical.

The target in experiment [10] is Alkaline phosphatase, placental type (Homo sapiens, UniProt P05187). The experiment is described as follows: human placental alkaline phosphatase inhibition – biochemical, luminescence, confirmation (AID 1512). It counts as functional.
Sequence of Alkaline phosphatase, placental type (P05187 whole entry): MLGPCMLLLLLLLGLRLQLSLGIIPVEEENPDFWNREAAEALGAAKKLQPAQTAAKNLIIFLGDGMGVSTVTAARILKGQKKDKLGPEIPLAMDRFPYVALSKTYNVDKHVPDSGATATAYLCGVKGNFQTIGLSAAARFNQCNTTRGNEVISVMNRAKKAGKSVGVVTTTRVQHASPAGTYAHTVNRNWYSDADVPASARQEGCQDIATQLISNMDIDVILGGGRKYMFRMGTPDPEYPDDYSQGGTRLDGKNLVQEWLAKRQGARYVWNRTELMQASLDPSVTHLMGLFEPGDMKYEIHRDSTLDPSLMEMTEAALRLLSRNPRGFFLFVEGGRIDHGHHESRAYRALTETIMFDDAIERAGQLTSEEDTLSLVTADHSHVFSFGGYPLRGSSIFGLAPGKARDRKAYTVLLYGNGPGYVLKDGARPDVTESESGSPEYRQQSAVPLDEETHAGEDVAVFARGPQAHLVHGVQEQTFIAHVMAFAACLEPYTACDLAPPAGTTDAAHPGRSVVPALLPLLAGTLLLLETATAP
Experiment [11] concerns the target T6, Alkaline phosphatase, tissue-nonspecific isozyme (Homo sapiens, UniProt P05186).
T6 sequence (P05186 whole entry): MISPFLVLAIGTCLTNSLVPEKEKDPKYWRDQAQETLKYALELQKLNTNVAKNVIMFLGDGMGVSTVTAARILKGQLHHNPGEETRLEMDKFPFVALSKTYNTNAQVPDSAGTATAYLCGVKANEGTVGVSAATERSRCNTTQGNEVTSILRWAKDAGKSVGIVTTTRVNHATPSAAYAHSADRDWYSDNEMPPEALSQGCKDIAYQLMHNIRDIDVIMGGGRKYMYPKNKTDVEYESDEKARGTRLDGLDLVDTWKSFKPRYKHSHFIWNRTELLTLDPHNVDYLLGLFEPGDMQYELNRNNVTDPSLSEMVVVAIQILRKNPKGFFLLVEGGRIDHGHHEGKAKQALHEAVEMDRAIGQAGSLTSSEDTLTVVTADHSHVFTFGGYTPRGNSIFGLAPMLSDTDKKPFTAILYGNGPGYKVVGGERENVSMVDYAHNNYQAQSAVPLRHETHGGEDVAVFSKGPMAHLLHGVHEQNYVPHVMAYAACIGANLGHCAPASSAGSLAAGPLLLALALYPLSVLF
Description: potency against alkaline phosphatase TNAP – biochemical, luminescent, dose response, SAR follow-up (AID 1056).

In another experiment the target is Phospholipase A2 (Homo sapiens, UniProt P04054). It counts as functional.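 Also: confirmatory dose-response counterscreen on phospholipase A2, testing hits that came from an ultra-high-throughput screen for ATG4B inhibitors.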
The target of experiment [12] is T7, Kappa-type opioid receptor (Homo sapiens, UniProt P41145). It counts as functional.
T7 sequence (P41145 whole entry): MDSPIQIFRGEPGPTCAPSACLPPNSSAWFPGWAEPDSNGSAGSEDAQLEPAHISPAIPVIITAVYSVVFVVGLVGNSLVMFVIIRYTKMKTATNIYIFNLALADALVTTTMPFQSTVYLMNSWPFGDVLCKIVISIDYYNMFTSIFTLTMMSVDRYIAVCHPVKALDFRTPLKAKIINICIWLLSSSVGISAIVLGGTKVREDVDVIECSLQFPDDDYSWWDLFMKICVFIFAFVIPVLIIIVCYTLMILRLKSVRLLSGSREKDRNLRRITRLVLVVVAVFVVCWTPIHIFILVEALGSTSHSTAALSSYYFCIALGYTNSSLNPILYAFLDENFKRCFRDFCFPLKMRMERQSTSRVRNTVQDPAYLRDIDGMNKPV
The next experiment has as its target Beta-galactosidase (Escherichia coli, UniProt Q8VNN2). It counts as functional.
The target of experiment [13] is T8, Delta-type opioid receptor (Homo sapiens, UniProt P41143). The experiment is described as follows: HTS Image-Based Screen for Agonists of the DOR Receptor. [Related pubchem assays (depositor defined):AID1777, AID1786, AID2133]. It counts as functional.
T8 sequence (P41143 whole entry): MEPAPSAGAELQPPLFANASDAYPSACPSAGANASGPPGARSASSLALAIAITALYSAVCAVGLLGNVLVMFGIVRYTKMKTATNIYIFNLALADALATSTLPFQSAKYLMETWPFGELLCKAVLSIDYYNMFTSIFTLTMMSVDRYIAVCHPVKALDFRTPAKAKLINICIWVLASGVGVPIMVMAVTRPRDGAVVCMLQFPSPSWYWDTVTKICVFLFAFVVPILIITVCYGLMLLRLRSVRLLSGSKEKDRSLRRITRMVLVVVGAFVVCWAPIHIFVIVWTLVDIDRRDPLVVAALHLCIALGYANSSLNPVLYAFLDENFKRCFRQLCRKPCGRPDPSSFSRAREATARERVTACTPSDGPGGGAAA
The target of experiment [14] is T7, Kappa-type opioid receptor. It counts as functional. The source holds these as a separate data set.
For the next experiment, the target named is Mu-type opioid receptor (Homo sapiens, UniProt P35372). The experiment is described as follows: HTS Image-Based Screen for Agonists of the MOR Receptor. [Related pubchem assays (depositor defined):AID1777, AID1785, AID1786, AID2133]. It counts as functional.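 Also: imaging of beta-arrestin GFP recruitment into spots after receptor activation.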
Experiment [15] addresses Voltage-dependent T-type calcium channel subunit alpha-1H (Homo sapiens, UniProt O95180). It counts as functional.
Experiment [16] deals with T8, Delta-type opioid receptor. The experiment is described as follows: HTS Image-Based Screen for Antagonists of the DOR Receptor. [Related pubchem assays (depositor defined):AID1777, AID1785, AID1786, AID2133]. It counts as functional.
The target in experiment [17] is T9, Tyrosyl-DNA phosphodiesterase 2 (Homo sapiens, UniProt O95551).
T9 sequence (O95551 whole entry): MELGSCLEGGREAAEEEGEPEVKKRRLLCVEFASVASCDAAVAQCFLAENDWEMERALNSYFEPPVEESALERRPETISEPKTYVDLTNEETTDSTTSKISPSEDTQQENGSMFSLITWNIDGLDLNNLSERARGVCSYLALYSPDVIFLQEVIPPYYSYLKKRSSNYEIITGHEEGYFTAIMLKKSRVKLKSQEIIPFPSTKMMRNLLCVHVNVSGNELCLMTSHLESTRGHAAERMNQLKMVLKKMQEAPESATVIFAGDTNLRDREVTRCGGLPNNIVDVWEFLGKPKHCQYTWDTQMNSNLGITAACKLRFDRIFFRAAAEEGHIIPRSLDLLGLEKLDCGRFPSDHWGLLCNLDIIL
Description: potency against TDP2 phosphodiesterase activity – biochemical, epi absorbance, IC50, dose response (AID 743297).

In another experiment the test system is INS1. The experiment is described as follows: INS-1E survival protection against cytokine death – cell-based, luminescence, retest, dose response (AID 449756).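 Also: cell death triggered by IL-1 beta plus TNF-alpha plus IFN-gamma mixture; protective hits raise ATP signal compared with cytokine alone wells.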 It counts as functional. The note with it: Rattus norvegicus.

Sequence of DNA dC->dU-editing enzyme APOBEC-3G (Q9HC16 whole entry): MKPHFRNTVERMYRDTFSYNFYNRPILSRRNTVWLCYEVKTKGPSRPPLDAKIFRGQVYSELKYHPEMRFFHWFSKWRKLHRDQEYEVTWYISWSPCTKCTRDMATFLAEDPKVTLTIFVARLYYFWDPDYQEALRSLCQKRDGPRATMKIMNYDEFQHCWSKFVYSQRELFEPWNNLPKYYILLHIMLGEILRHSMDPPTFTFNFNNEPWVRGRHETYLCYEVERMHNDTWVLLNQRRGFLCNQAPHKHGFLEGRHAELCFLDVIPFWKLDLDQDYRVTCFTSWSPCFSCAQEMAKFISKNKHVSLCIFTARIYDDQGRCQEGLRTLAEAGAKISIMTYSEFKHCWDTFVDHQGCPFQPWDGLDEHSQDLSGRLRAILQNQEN

A word on the IC50: it is the concentration at which inhibition is half-maximal. Take `COc1ccc(CCCC(=O)NC2CCCCC2C)c(C)c1` (stereo not drawn): the IC50 was 2.99 µM (active) in experiment [1] and 3.49 µM (active) in experiment [2].

With `Cc1cccc(N2CSC3=C(C#N)C(c4ccc(C)o4)CC(=O)N3C2)c1` (stereo not drawn), the IC50 on Large T antigen was 11.4 µM (active); in experiment [3], 6.47 µM (active); in [4] it was 22.3 µM (active); at Estrogen receptor, 3.55 µM (active); against Genome polyprotein [5], > 49.8 µM (not active).

As a reminder, the CC50 is the concentration giving 50% cytotoxicity. Consider `Cc1cc(C)c(S(=O)(=O)/N=C2/C=C(SCC(=O)O)C(=O)c3ccccc32)cc1C`, for which the IC50 in experiment [6] was 30.2 µM (inactive); on Genome polyprotein [7], > 100 µM (active); in experiment [8] it was 7.55 µM (active); in [9], 12.6 µM (active). Further, the CC50 in the experiment on Vero is 37.5 µM (active).

As usually defined, the AC50 is the concentration at which the activity in the assay is half-maximal. Turning to `Cc1cc(=O)n2ccccc2c1C#N`, the AC50 at CAAX prenyl protease 2 is 24.9 µM (active).

Consider `Cc1cccnc1NC(=O)CN1C(=O)COc2ccc(Cl)cc21`, for which the IC50 in experiment [1] is 1.65 µM (active); in [2], 1.91 µM (active).

On to `Cc1cc(C)nc(NC(=S)Nc2cccc(Cl)c2Cl)c1`, for which the IC50 in experiment [3] was 1.27 µM (active); in [4] it was > 50 µM (inactive).

In the case of `O=C(CNC1CCCCC1)c1ccc(O)c(O)c1`, the IC50 in experiment [10] is 18.8 µM (active); in experiment [11] it was > 100 µM (inactive).

Consider `Cc1cc(C(=O)NCc2ccc(O)c(O)c2)c(C)o1`, for which the IC50 in experiment [10] is > 100 µM (inactive); in experiment [11], 12.5 µM (active).

With `N#Cc1c(-c2cccc(Br)c2)cc(-c2ccco2)[nH]c1=O`, the IC50 at Phospholipase A2 was 11.7 µM (active).

The EC50 is the concentration needed to bring the measured effect to its halfway point. For `O=C(Nc1nnc(-c2cccs2)o1)c1cccc(Oc2ccccc2)c1`, the IC50 in experiment [12] is 9.8 µM (active); in experiment [14] it was greater than 32 µM; in experiment [16] it was > 32 µM (inactive). Also, the EC50 on Beta-galactosidase is > 31.5 µM (inactive); in experiment [13], > 32 µM (inactive); at Mu-type opioid receptor, > 32 µM (inactive); in experiment [15], 3.02 µM (active).

As to `Nc1ccc2nn(-c3cccc4ccccc34)nc2c1`, the IC50 in experiment [17] is > 128 µM (inactive); in experiment [9], 50 µM (active). In addition, in the experiment with INS1, the concentration at half-maximal activity (AC50) is 12.6 µM (active).

On to `COc1ccccc1N1CCN(C(c2cccs2)C(C)NS(=O)(=O)c2ccccc2)CC1` (stereo not drawn), for which, in experiment [9], the IC50 was 10 µM (active).
